Measured values from US20150209315A1 (Cumberland Pharmaceuticals, priority 2009, published 2015).

Tested on: post-operative adult patients
Assay: Example 1: patient self-assessment of pain, VAS at rest
Assay type: in vivo, human
Experimental: Pain was measured by the patient's self-assessment using a Visual Analog Scale (VAS) from 0-10 with 0 being no pain and 10 being intense pain. This was measured both at rest and with movement. […] […] To account for the missing pain assessments, two missing value approaches as described in the statistical analysis plan were used to impute values. To determine the difference in overall pain at differing time-points, the area under the VAS pain curve during the first 24 hours, between 6 and 24 hours and between 12 and 24 hours were analyzed.

Structure (SMILES): CC(C)Cc1ccc(C(C)C(=O)O)cc1 (centres unmarked) [Ibuprofen, 2-(4-isobutylphenyl) propionic acid]
- VAS Score measured at Rest (median) (400 mg, EEP, 1-Hour): 7.0
- VAS Score measured at Rest, % Reduction vs Placebo (400 mg, EEP, 1-Hour): 0.0%
- VAS Score measured at Rest (median) (400 mg, EEP, 2-Hour): 6.1
- VAS Score measured at Rest, % Reduction vs Placebo (400 mg, EEP, 2-Hour): −3.4%
- VAS Score measured at Rest (median) (400 mg, EEP, 3-Hour): 5.0
- VAS Score measured at Rest, % Reduction vs Placebo (400 mg, EEP, 3-Hour): 0.0%
- VAS Score measured at Rest (median) (400 mg, EEP, 6-Hour): 4.0
- VAS Score measured at Rest, % Reduction vs Placebo (400 mg, EEP, 6-Hour): 0.0%
- VAS Score measured at Rest (median) (400 mg, EEP, 9-Hour): 3.0
- VAS Score measured at Rest (median) (400 mg, EEP, 12-Hour): 3.0
- VAS Score measured at Rest, % Reduction vs Placebo (400 mg, EEP, 12-Hour): 0.0%
- VAS Score measured at Rest (median) (400 mg, EEP, 15-Hour): 2.0
- VAS Score measured at Rest, % Reduction vs Placebo (400 mg, EEP, 15-Hour): 33.3%
- VAS Score measured at Rest (median) (400 mg, EEP, 18-Hour): 2.9
- VAS Score measured at Rest, % Reduction vs Placebo (400 mg, EEP, 18-Hour): 3.3%
- VAS Score measured at Rest (median) (400 mg, EEP, 21-Hour): 2.9
- VAS Score measured at Rest, % Reduction vs Placebo (400 mg, EEP, 21-Hour): 3.3%
- VAS Score measured at Rest (median) (400 mg, EEP, 24-Hour): 3.0
- VAS Score measured at Rest, % Reduction vs Placebo (400 mg, EEP, 24-Hour): 0.0%
- VAS Score measured at Rest (median) (400 mg, EEP, 27-Hour): 3.0
- VAS Score measured at Rest, % Reduction vs Placebo (400 mg, EEP, 27-Hour): 3.2%
- VAS Score measured at Rest (median) (400 mg, EEP, 30-Hour): 2.5
- VAS Score measured at Rest, % Reduction vs Placebo (400 mg, EEP, 30-Hour): 10.7%
- VAS Score measured at Rest (median) (400 mg, EEP, 33-Hour): 2.7
- VAS Score measured at Rest, % Reduction vs Placebo (400 mg, EEP, 33-Hour): 15.6%
- VAS Score measured at Rest (median) (400 mg, EEP, 36-Hour): 2.4
- VAS Score measured at Rest, % Reduction vs Placebo (400 mg, EEP, 36-Hour): 7.7%
- VAS Score measured at Rest (median) (400 mg, EEP, 39-Hour): 2.1
- VAS Score measured at Rest, % Reduction vs Placebo (400 mg, EEP, 39-Hour): −16.7%
- VAS Score measured at Rest (median) (400 mg, EEP, 42-Hour): 2.1
- VAS Score measured at Rest, % Reduction vs Placebo (400 mg, EEP, 42-Hour): −5.0%
- VAS Score measured at Rest (median) (400 mg, EEP, 45-Hour): 2.4
- VAS Score measured at Rest, % Reduction vs Placebo (400 mg, EEP, 45-Hour): −14.3%
- VAS Score measured at Rest (median) (400 mg, EEP, 48-Hour): 1.6
- VAS Score measured at Rest, % Reduction vs Placebo (400 mg, EEP, 48-Hour): −6.7%
- VAS Score measured at Rest (median) (400 mg, ITT, 1-Hour): 7.0
- VAS Score measured at Rest, % Reduction vs Placebo (400 mg, ITT, 1-Hour): 0.0%
- VAS Score measured at Rest (median) (400 mg, ITT, 2-Hour): 6.3
- VAS Score measured at Rest, % Reduction vs Placebo (400 mg, ITT, 2-Hour): −3.3%
- VAS Score measured at Rest (median) (400 mg, ITT, 3-Hour): 5.1
- VAS Score measured at Rest, % Reduction vs Placebo (400 mg, ITT, 3-Hour): −2.0%
- VAS Score measured at Rest (median) (400 mg, ITT, 6-Hour): 4.3
- VAS Score measured at Rest, % Reduction vs Placebo (400 mg, ITT, 6-Hour): −7.5%
- VAS Score measured at Rest (median) (400 mg, ITT, 9-Hour): 3.5
- VAS Score measured at Rest, % Reduction vs Placebo (400 mg, ITT, 9-Hour): 12.5%
- VAS Score measured at Rest (median) (400 mg, ITT, 12-Hour): 3.1
- VAS Score measured at Rest, % Reduction vs Placebo (400 mg, ITT, 12-Hour): −3.3%
- VAS Score measured at Rest (median) (400 mg, ITT, 15-Hour): 2.6
- VAS Score measured at Rest, % Reduction vs Placebo (400 mg, ITT, 15-Hour): 21.2%
- VAS Score measured at Rest (median) (400 mg, ITT, 18-Hour): 2.9
- VAS Score measured at Rest, % Reduction vs Placebo (400 mg, ITT, 18-Hour): 3.3%
- VAS Score measured at Rest (median) (400 mg, ITT, 21-Hour): 2.8
- VAS Score measured at Rest, % Reduction vs Placebo (400 mg, ITT, 21-Hour): 20.0%
- VAS Score measured at Rest (median) (400 mg, ITT, 24-Hour): 3.0
- VAS Score measured at Rest, % Reduction vs Placebo (400 mg, ITT, 24-Hour): 0.0%
- VAS Score measured at Rest (median) (400 mg, ITT, 27-Hour): 3.1
- VAS Score measured at Rest, % Reduction vs Placebo (400 mg, ITT, 27-Hour): −3.3%
- VAS Score measured at Rest (median) (400 mg, ITT, 30-Hour): 2.4
- VAS Score measured at Rest, % Reduction vs Placebo (400 mg, ITT, 30-Hour): 11.1%
- VAS Score measured at Rest (median) (400 mg, ITT, 33-Hour): 2.7
- VAS Score measured at Rest, % Reduction vs Placebo (400 mg, ITT, 33-Hour): 15.6%
- VAS Score measured at Rest (median) (400 mg, ITT, 36-Hour): 2.3
- VAS Score measured at Rest, % Reduction vs Placebo (400 mg, ITT, 36-Hour): 11.5%
- VAS Score measured at Rest (median) (400 mg, ITT, 39-Hour): 2.1
- VAS Score measured at Rest, % Reduction vs Placebo (400 mg, ITT, 39-Hour): −16.7%
- VAS Score measured at Rest (median) (400 mg, ITT, 42-Hour): 2.1
- VAS Score measured at Rest, % Reduction vs Placebo (400 mg, ITT, 42-Hour): −5.0%
- VAS Score measured at Rest (median) (400 mg, ITT, 45-Hour): 2.4
- VAS Score measured at Rest, % Reduction vs Placebo (400 mg, ITT, 45-Hour): −20.0%
- VAS Score measured at Rest (median) (400 mg, ITT, 48-Hour): 1.6
- VAS Score measured at Rest, % Reduction vs Placebo (400 mg, ITT, 48-Hour): −6.7%
- VAS Score measured at Rest (median) (800 mg, EEP, 1-Hour): 7.0
- VAS Score measured at Rest, % Reduction vs Placebo (800 mg, EEP, 1-Hour): 0.0%
- VAS Score measured at Rest (median) (800 mg, EEP, 2-Hour): 6.0
